Assay results reported in patent publication US20060074049A1, “Use of heparinoids for treatment and prevention of dementia” (priority 2004, published 2006).

Legend:
[1] = system: human neurospheres (NPC); assay: Block of IIIb coat protein effect on NPC proliferation by recombinant apolipoproteins; format: cell-based; conditions: 20 nM recombinant apolipoprotein
Protocol: FIG. 6 is a graph showing the number of BrdU labeled NPC in samples treated with recombinant HIV gp120 from the IIIb strain, which was pre-incubated with or without recombinant ApoE3 and ApoE4.
A risk factor for the development of HIV dementia is homozygosity for the apolipoprotein E4 genotype (Corder et al. (1998) Nat. Med. 4:1182-1184). In Herpes simplex virus infection, it has been speculated that apo E proteins compete with HSV for binding to HS, and that apo E4 cannot compete as efficiently as apo E3 (Itzhaki et al. (1998) Nat. Med. 4:1344). To determine whether apolipoproteins might compete with HIV coat proteins for binding to cell surface HS on NPC, human neurospheres were incubated with the IIIb coat protein, and the ability of recombinant apolipoproteins to block the inhibitory effect of the coat protein on NPC proliferation was tested. […] Thus, apolipoproteins compete with HIV coat proteins for cell surface binding.

[2] = system: human NPC; assay: Plating assay: NPC colony formation / quiescence; format: cell-based
Protocol: Cells and Materials: Normal human NPC were obtained from Clonetics Corp (San Diego, Calif.), and grown in neural progenitor maintenance medium (Clonetics) with human recombinant basic fibroblast growth factor, epidermal growth factor, neural survival factors and antibiotics. These cells were derived as described previously (Svendsen (1998) J. Neurosci. Meth. 85:141-152).
Plating Assay: On day 0, HIV coat proteins at a concentration of 800 pM, or CSF at a concentration of 2% was added to cultures of NPC. Each protein or CSF sample was tested in triplicate. Cultures were incubated for seven days, and then cells were plated onto 24 well polyethylene-imine coated plates. The number of cell colonies having more than 20 cells with typical neuronal morphology was counted for each well after 7 days in culture. Determinations of colony inhibition for all proteins and CSF samples were done on each of three different lots of NPC. Each lot was passaged 1-3 times before testing, with no differences seen between this number of passages.
The ability of HIV coat proteins to induce quiescence in human NPC was tested using NPC in the form of neurospheres. Typically, neurospheres with quiescent cells fail to attach and differentiate, while neurospheres containing proliferating cells will attach and differentiate into neurons and astrocytes. To determine whether only those coat proteins that signal through either the CXCR4 receptor or the […] receptor would induce quiescence of NPC, purified recombinant coat proteins from several different strains of HIV were tested. These included the R5 strain CM235, the X4 strain IIIb, and the clade E/A recombinant R5 strain 93TH975 (Gao et al. (1996) J. Virol. 70:1651-1667). […] The number of colonies containing more than 20 cells with typical neuronal morphology was counted after 7 days in culture. […] None of the coat proteins induced cell death in NPC, as determined by trypan blue staining (>95% viability in all coat-protein treated cultures). […]

[3] = system: human NPC; assay: BrdU incorporation into NPC neurospheres by flow cytometry; format: cell-based
Source text: FIG. 1 is a graph showing the number of NPC colonies displaying outgrowth of cells with neuronal morphology after treatment with coat proteins from the HIV strains 93TH975, CM235 and IIIb. The mean+/−standard error is shown. PTX=pertussis toxin, Anti V3=monoclonal antibody to the V3 loop region of gp120. FIG. 1B is a series of graphs showing the level of bromodeoxyuridine (BrdU) incorporation into NPC neurospheres treated with coat proteins from the HIV strains 93TH975, CM235 and IIIb. Shaded area=control cells, solid line=treated cells.
To quantitate the ability of the coat proteins to cause cells to become quiescent, the number of attached, differentiated colonies was counted. […] In contrast, the 93TH975 coat protein had no effect. In order to confirm that cell proliferation was indeed inhibited by the coat proteins, cultures of NPC were labeled with BrdU, and BrdU incorporation was measured by flow cytometry.

[4] = system: p21 and p27; assay: p21 and p27 expression in NPC by immunohistochemistry; format: cell-based, human
Protocol: For p21 and p27 detection, NPC were grown with recombinant coat proteins for 24 hours. Cells were fixed and monoclonal antibodies to p21 or p27 (Pharmingen) were added. A secondary antibody conjugated to Cy3 was used for detection.
NCP were incubated with 800 pM recombinant coat proteins, and expression of p21 and p27 was analyzed using immunohistochemistry.

[5] = system: ERK; assay: ERK phosphorylation in NPC by flow cytometry; format: cell-based, human
Protocol: Signaling: Isolated NPC were incubated with coat proteins for 10 minutes, placed on ice, fixed, permeabilized with saponin, and stained with fluorescein isothiocyanate-(FITC-) conjugated phosphospecific monoclonal antibodies to ERK (Santa Cruz Biotechnology, Santa Cruz, Calif.). Cells were then analyzed by flow cytometry. Activity of PP2A was inhibited by incubation with okadaic acid (Calbiochem, San Diego, Calif.) at 2.5 μM for 1 hour prior to the addition of coat proteins. Experiments were performed at least twice, and determinations were performed in triplicate.
Proliferation of NPC is increased by signals that increase ERK phosphorylation (Learish et al. (2000) Develop. Brain Res. 122:97-109). […] NPC were incubated with a panel of HIV coat proteins and assayed to determine the fraction of cells with phosphorylated ERK. The CM235 and IIIb coat proteins inhibited ERK phosphorylation by 34% and 77% respectively (p<0.05 for both; FIGS. 2A and 2B). […] Thus, HIV coat proteins are able to activate a cellular phosphatase by signaling through chemokine receptors and reduce ERK phosphorylation, leading to reduced NPC proliferation.

[6] = system: NPC in human hippocampal slices; assay: Hippocampal slice cultures, BrdU positive NPC; format: cell-based; conditions: coat protein 1 nM; p<0.001
Protocol: Hippocampal slice cultures: Discarded hippocampal tissue was obtained from patients undergoing corrective surgery for seizures as previously described (Roy et al. (2000) Nat. Med. 6:271-277; and Pincus et al. (1998) Neurosurg. 42:858-868). Tissue was obtained within 1 hour of removal and cultured as described (Stoppini et al. (1991) J. Neurosci, Meth. 37:173-182). Briefly, tissue was sliced to 200 μm thickness using a Brendel-Vitron tissue slicer (Vitron, Inc., Tucson, Ariz.). Slices were placed in a Transwell insert (Costar, Corning, N.Y.) and cultured in neural progenitor maintenance medium (NPMM) with or without chemokines (500 ng/ml), HIV coat proteins (1 nM) or CSF (2%) added on day 0. Each sample was tested in triplicate. The entire experiment was performed at least twice with identical results. Slices were labeled with BrdU on day 5 of culture, and harvested for immunohistochemistry on day 7 by freezing slices in OCT. Five-micron sections were made, and BrdU incorporation was detected using a BrdU in situ kit (Pharmingen, San Diego, Calif.). For dual staining of BrdU and Musashil, a polyclonal antibody to Musashil (Chemicon International, Temecula, Calif.) was used at a dilution of 1:10. Apoptotic cells were detected using a TUNEL assay (Oncogene, Boston, Mass.). […]

Compound: apo E3: recombinant apolipoprotein E3
- block of IIIb coat protein inhibition of NPC proliferation [1]: prevented the IIIb coat protein from inhibiting NPC proliferation

Compound: IIIb: purified recombinant HIV coat protein (gp120) of the X4 strain IIIb
- induction of quiescence / effect on attached differentiated NPC colonies (in words) ([2]; coat protein 800 pM for 7 days): caused NPC to enter a quiescent state
- reduction of the number of differentiated NPC colonies ([2]; coat protein 800 pM for 7 days, colonies counted after 7 days on coated plates, p<0.001): 74%
- BrdU incorporation into NPC, tested 7 days after addition of coat proteins ([3]; 7 days after addition): incorporation similar to controls
- BrdU incorporation into NPC compared with controls ([3]; coat protein treated NPC): less BrdU incorporation
- expression of p21 and p27 in NPC ([4]; 800 pM recombinant coat protein): induced expression of p21 and p27
- reduction in fraction of NPC with phosphorylated ERK ([5]; NPC incubated with coat protein 10 minutes, p<0.05 for CM235 and IIIb, 93TH975 non-significant): 77%
- reduction of proliferation of NPC (BrdU positive cells) in hippocampal slices [6]: 70%

Compound: pertussis toxin [reference compound]
- effect on the inhibitory effects of CM235 and IIIb coat proteins on NPC ([2]; added to NPC cultures in addition to coat proteins): eliminated

Compound: apo E4: recombinant apolipoprotein E4
- block of IIIb coat protein inhibition of NPC proliferation [1]: did not

Compound: c1cc(CN2CCCNCCNCCCNCC2)ccc1CN1CCCNCCNCCCNCC1 [AMD3100, reference compound]
- effect on induction of p21 and p27 by the IIIb coat protein ([4]; with IIIb coat protein): blocked

Compound: C=C1[C@@H](O)[C@@H]2O[C@]3(CC[C@H](/C=C/[C@@H](C)[C@@H]4CC(C)=C[C@@]5(O[C@H](C[C@@](C)(O)C(=O)O)CC[C@H]5O)O4)O3)CC[C@H]2O[C@@H]1[C@@H](O)C[C@H](C)[C@H]1O[C@@]2(CCCCO2)CC[C@H]1C [okadaic acid, reference compound]
- effect on inhibition of ERK phosphorylation induced by CM235 and IIIb coat proteins ([5]; 2.5 μM for 1 hour prior to coat proteins): blocked the inhibition of ERK phosphorylation
